Active and inactive are the calls of the source. Rule as the data show it: actives have a measured IC50 and inactives only a lower limit.
Each molecule was assayed against Envelope glycoprotein gp160 (Human immunodeficiency virus 1, UniProt Q6QLK5) (assay: cell-free HIV fusion peptide-binding blockers – biochemical, uHTS, fluorescence dequenching, […] (AID 1986)).
Sequence of Envelope glycoprotein gp160 (Q6QLK5 whole entry, the tested form may be a part): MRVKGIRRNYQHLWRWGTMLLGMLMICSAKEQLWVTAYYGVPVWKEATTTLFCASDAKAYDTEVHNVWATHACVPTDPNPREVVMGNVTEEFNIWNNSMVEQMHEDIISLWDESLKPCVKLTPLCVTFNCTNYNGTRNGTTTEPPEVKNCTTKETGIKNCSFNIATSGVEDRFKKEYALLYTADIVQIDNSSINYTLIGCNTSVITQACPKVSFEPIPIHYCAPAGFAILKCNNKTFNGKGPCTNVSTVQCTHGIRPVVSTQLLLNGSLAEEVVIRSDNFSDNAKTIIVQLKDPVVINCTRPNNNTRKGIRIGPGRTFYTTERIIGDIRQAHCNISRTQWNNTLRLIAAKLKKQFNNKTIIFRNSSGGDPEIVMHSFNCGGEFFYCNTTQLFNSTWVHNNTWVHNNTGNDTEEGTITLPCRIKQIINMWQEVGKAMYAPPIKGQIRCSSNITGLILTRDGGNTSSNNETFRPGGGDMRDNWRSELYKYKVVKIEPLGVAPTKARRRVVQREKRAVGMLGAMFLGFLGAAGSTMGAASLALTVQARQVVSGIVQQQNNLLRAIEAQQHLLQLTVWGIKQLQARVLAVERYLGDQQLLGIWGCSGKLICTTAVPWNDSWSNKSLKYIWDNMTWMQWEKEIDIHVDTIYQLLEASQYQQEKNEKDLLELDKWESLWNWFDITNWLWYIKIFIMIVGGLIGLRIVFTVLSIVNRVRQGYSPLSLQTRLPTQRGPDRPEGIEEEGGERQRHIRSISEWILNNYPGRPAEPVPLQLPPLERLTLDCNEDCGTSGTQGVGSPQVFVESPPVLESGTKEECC
For `Cc1cc(N2C(=O)C(O)=C(C(=O)c3cc4ccccc4o3)C2c2ccc(Cl)cc2)no1` (stereo not given), the IC50 was 15.9 µM (active).
With `O=C(O)c1ccc(-c2ccc(/C=C3\NC(=O)N(Cc4ccc(Cl)cc4)C3=O)o2)cc1Cl` the IC50 was 10.7 µM (active).
For `CCOC(=O)c1sc(N2C(=O)C(O)=C(C(=O)c3ccc(C)o3)C2c2cccc([N+](=O)[O-])c2)nc1C` (stereo not given), the IC50 was 17.6 µM (active).
For `Cc1cc(N2C(=O)C(O)=C(C(=O)c3ccc(C)o3)C2c2cccc(Oc3ccccc3)c2)no1` (stereo not given), the IC50 was 24.1 µM (active).
For `COc1cccc(C2C3=C(N=c4s/c(=C\c5ccc(OCC(=O)O)cc5)c(=O)n42)c2ccccc2CC3)c1` (stereo not given), the IC50 was 18.6 µM (active).

Reference: ChEMBL document CHEMBL1201862, “PubChem BioAssay data set” (2004)
